What was measured:
[1] = system: injury-induced mechanical hypersensitivity; conditions: cited from earlier work
[2] = system: spinal lamina II interneurons; conditions: spinal lamina II interneurons (WO2014180853); cited from earlier work
[3] = system: Spared Nerve Injury (SNI) model of neuropathic pain; experiment: Spared Nerve Injury (SNI) model of neuropathic pain, Von Frey up-down mechanical threshold; assay type: in vivo, mice; conditions: SNI day 14, per os, 30 μg/mL solution in HPMC vehicle; peptides significant as soon as 1 hour (p value<0.01)

TAFA4 FL: human TAFA-4 full length mature protein (SEQ ID NO: 5) of 105 amino acid residues
effect on prolonged nerve injury-induced mechanical hypersensitivity of TAFA-4 gene deleted mice ([1]; intrathecal injection (Delfini et al., 2013)): reversed | effect on mechanical hypersensitivity ([1]; male and female mice, intrathecal and subcutaneous administration (WO2014180853)): reverses inflammatory, postoperative and nerve injury-induced mechanical hypersensitivity | effect on nerve injury-induced neuronal sensitization [2]: can reverse nerve injury-induced neuronal sensitization of the spinal lamina II interneurons | antalgic effect (reversal of mechanical threshold) [3]: did not show significant antalgic effect

From patent US20250213654A1, “PEPTIDES AND METHODS FOR USE IN TREATING PAIN” (TAFALGIE THERAPEUTICS, priority 2022, published 2025)
